In patent US20190185479A1, “BICYCLIC NITROGENATED HETEROCYCLIC COMPOUND” (MITSUBISHI TANABE PHARMA CORPORATION, priority 2016, published 2019):

Columns and labels:
Format in all cases: biochemical
hPDE8B = target: T1, hPDE8B (Homo sapiens, UniProt O95263); test: PDE8 inhibition assay (IC50), Experimental Example 3; details: for IC50: hPDE8B, read-out: PDE inhibition assay IC50, PDE8; for inhibition at 1 µM: at 1 μmol/L, read-out: inhibition rate (%) at prescribed concentration, PDE8
T1 construct: purchased SB Drug Discovery
T1 sequence (O95263 whole entry): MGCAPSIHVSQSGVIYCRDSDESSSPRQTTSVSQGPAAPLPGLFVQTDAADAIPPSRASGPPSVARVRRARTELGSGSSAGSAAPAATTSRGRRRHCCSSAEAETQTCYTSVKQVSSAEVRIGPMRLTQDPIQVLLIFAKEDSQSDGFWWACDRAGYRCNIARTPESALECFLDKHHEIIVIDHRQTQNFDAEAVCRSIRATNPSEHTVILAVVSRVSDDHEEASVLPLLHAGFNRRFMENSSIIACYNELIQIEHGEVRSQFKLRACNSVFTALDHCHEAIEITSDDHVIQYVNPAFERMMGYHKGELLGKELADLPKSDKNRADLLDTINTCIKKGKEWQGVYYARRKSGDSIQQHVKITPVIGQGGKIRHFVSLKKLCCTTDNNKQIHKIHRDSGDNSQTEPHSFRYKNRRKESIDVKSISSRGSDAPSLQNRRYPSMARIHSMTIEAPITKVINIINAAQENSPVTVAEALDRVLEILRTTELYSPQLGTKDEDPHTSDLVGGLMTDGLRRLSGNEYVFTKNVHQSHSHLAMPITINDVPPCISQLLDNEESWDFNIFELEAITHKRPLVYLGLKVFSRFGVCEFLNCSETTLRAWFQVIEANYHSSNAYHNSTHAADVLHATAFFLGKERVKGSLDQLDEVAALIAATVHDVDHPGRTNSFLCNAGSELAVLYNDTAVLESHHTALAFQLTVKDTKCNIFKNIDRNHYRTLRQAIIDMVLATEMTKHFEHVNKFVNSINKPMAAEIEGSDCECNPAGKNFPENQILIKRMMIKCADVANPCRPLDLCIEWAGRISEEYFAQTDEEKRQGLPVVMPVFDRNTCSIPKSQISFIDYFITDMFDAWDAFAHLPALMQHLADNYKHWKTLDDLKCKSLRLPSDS
In short: (§1)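 Recombinant human enzymes incubated with compound and 3 nmol/L cAMP (final) in Tris-HCl pH 7.5 buffer with MgCl2, BSA, DTT, 2% DMSO final, 60 min at room temperature. Residual cAMP measured by TR-FRET (LANCE Ultra), reaction stopped with 0.5 mmol/L IBMX. IC50 from inhibition relative to no-compound (0%) and no-enzyme (100%) controls.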

hPDE10A = hPDE10A (Homo sapiens, UniProt Q9Y233); test: PDE10 inhibition assay (IC50), Experimental Example 3; details: for IC50: hPDE10A, read-out: PDE inhibition assay IC50, PDE10; for inhibition at 10 µM: at 10 μmol/L
Sequence of hPDE10A (Q9Y233 290-1055 limits assumed): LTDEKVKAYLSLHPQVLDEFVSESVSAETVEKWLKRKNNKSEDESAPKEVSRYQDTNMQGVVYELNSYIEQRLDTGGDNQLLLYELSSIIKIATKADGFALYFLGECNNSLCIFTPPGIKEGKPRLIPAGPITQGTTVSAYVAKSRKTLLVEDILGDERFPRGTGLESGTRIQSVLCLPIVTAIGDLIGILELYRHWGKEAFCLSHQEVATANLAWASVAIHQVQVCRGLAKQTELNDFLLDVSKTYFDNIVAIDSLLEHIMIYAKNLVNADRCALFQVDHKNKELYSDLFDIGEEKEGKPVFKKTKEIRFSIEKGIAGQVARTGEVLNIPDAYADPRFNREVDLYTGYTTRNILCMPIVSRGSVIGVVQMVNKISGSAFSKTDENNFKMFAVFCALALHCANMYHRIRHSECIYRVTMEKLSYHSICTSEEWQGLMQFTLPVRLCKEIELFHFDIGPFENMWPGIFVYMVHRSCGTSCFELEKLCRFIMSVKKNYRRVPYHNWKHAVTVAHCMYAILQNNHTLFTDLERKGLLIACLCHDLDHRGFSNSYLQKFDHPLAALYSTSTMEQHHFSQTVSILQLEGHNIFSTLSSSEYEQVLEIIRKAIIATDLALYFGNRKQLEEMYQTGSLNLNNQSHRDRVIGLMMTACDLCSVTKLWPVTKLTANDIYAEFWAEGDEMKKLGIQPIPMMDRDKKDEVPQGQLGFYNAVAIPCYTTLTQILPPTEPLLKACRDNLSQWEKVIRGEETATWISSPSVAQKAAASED
In short: as §1

Human PDE7B (hPDE7B) = target: T2, Human PDE7B (hPDE7B) (Homo sapiens, UniProt Q9NP56); test: Measurement of PDE7 inhibitory activity (Experimental Example 1; residual cAMP, LANCE Ultra cAMP TR-FRET); details: cAMP 3 nmol/L, room temperature 60 minutes
T2 construct: made in house; host or cells: COS-7 cells
T2 sequence (Q9NP56 whole entry): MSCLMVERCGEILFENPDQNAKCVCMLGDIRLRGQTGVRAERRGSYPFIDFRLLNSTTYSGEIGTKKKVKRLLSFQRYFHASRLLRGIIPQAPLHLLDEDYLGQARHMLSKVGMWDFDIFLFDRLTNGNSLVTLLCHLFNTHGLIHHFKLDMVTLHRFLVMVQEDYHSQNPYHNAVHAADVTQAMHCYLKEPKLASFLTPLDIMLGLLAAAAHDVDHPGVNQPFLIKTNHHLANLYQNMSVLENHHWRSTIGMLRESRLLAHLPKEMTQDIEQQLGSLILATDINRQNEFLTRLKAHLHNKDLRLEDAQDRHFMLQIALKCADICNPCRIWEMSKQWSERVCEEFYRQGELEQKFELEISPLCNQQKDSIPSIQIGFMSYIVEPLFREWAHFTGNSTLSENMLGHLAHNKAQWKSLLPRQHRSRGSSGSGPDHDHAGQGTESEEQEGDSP
In short: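 hPDE7B from transfected COS-7 cells reacted with 3 nmol/L cAMP (final) and compound (2% DMSO) in 50 mmol/L Tris-HCl pH 7.5, 1 mmol/L MgCl2, 0.1% BSA, 0.5 mmol/L DTT, 60 min at room temperature. Reaction stopped with IBMX; residual cAMP measured by TR-FRET. Inhibition scaled between no-compound and no-enzyme controls.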

hPDE4D = target: T3, hPDE4D (Homo sapiens, UniProt Q08499); test: PDE4 inhibition assay (IC50), Experimental Example 3; details: for inhibition at 10 µM: at 10 μmol/L; for inhibition at 10 µM / inhibition at 1 µM: read-out: inhibition rate (%) at prescribed concentration, PDE4; for IC50: hPDE4D, read-out: PDE inhibition assay IC50, PDE4; for inhibition at 1 µM: at 1 μmol/L
T3 construct: purchased SB Drug Discovery
T3 sequence (Q08499 whole entry): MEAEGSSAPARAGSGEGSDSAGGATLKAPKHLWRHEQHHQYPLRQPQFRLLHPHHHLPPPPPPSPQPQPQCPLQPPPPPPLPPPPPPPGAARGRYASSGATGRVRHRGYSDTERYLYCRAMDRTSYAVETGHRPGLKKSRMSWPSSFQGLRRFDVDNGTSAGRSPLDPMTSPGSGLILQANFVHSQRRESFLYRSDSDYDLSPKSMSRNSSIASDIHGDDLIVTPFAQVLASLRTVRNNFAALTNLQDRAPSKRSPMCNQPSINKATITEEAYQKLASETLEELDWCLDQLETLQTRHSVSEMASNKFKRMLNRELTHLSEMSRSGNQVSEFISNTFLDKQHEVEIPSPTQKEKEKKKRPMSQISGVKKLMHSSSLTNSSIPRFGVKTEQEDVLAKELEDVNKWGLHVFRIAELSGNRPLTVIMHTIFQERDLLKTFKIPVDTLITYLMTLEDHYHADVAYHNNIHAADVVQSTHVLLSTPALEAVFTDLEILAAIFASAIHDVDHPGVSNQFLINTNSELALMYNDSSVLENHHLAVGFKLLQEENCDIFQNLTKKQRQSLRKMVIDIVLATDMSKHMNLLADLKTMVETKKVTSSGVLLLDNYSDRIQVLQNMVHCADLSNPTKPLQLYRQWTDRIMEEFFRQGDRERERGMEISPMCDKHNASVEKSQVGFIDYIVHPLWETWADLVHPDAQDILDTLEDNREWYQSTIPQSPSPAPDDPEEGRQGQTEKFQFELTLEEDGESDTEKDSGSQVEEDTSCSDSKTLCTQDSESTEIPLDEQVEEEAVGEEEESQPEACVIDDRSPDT
In short: as §1

[1] = read-out: inhibition rate (%) at prescribed concentration, PDE10

SMILES	IC50 (hPDE8B) [µM]	IC50 (hPDE10A) [µM]	IC50 (Human PDE7B (hPDE7B)) [µM]	inhibition at 10 µM (hPDE4D) [%]	inhibition at 10 µM (hPDE10A; [1]) [%]	IC50 (hPDE4D) [µM]	inhibition at 1 µM (hPDE8B) [%]	inhibition at 1 µM (hPDE4D) [%]	inhibition at 100 µM (hPDE10A; at 100 μmol/L, read-out: inhibition rate (%) at prescribed concentration, PDE10) [%]
Nc1nccn2c([C@@H]3C[C@@H]4[C@H](C3)C4(F)F)nnc12 [Example 160]		34.9	0.08			3.41	54		
Cc1cnc(N)c2nnc(N3CCCC(C)(C)C3)n12 [Example 80, 3-(3,3-dimethylpiperidin-1-yl)-5-methyl[1,2,4]triazolo[4,3-a]pyrazin-8-amine]	3	8	0.003			6			
CC1CCN(c2nnc3c(N)nccn23)CC1C (single isomer, unassigned) [Example 230, 3-(3,4-dimethylpiperidin-1-yl) [1,2,4]triazolo[4,3-a]pyrazin-8-amine]	2.9	19.6	0.08			4			
CC1CCC(C)N(c2nnc3c(N)ncc(C#N)n23)C1 (single isomer, unassigned) [Example 234, 8-amino-3-(2,5-dimethylpiperidin-1-yl) [1,2,4]triazolo[4,3-a]pyrazine-5-carbonitrile]	2.7	3.2	0.00015			6.3			
CC1CCC(C(F)(F)F)CC1c1nnc2c(N)ncnn12 (racemic) [Example 83, 3-[2-methyl-5-(trifluoromethyl)cyclohexyl][1,2,4]triazolo[3,4-f][1,2,4]triazin-8-amine]	1.33	3.04	< 0.01					53	
CN1CCC[C@H](n2nnc3c(N)ncnc32)C1 [Example 135, 3-[(3S)-1-methylpiperidin-3-yl]-3H-[1,2,3]triazolo[4,5-d]pyrimidin-7-amine]	9.41		0.31	17	22				
CC1(C)CCCN(c2nnc3c(N)ncc(C#N)n23)C1 [Example 2, 8-amino-3-(3,3-dimethylpiperidin-1-yl) [1,2,4]triazolo[4,3-a]pyrazine-5-carbonitrile]	1.62	6.23	0.0007					61	
Nc1nccn2c(N3C4CCCC3CC4)nnc12 [Example 67]	15	31.8	0.09			21			
CC1CC(C)CN(c2nnc3c(N)ncc(C#N)n23)C1 (racemic) [Example 54, 8-amino-3-(3,5-dimethylpiperidin-1-yl) [1,2,4]triazolo[4,3-a]pyrazine-5-carbonitrile]	3.35		0.04			7.86			30
CC1CCN(c2nnc3c(N)nccn23)C(C)C1 (racemic) [Example 61, 3-(2,4-dimethylpiperidin-1-yl) [1,2,4]triazolo[4,3-a]pyrazin-8-amine]	18.4	16.3	0.06			5.8			
CC1CCC(C)N(c2nnc3c(N)nccn23)C1 (single isomer, unassigned) [Example 232, 3-(2,5-dimethylpiperidin-1-yl) [1,2,4]triazolo[4,3-a]pyrazin-8-amine]	4.6	0.35	0.003			1.4			
Nc1nccn2c([C@H]3C[C@@H](C(F)(F)F)CCC3(F)F)nnc12 (racemic) [Example 172, 3-[cis-2,2-difluoro-5-(trifluoromethyl)cyclohexyl][1,2,4]triazolo[4,3-a]pyrazin-8-amine]	9	21.8	< 0.01			5.9			

Other lines, results leading:

IC50 (hPDE8B) [µM]	IC50 (hPDE10A) [µM]	IC50 (Human PDE7B (hPDE7B)) [µM]	inhibition at 10 µM (hPDE4D) [%]	inhibition at 10 µM (hPDE10A; [1]) [%]	IC50 (hPDE4D) [µM]	inhibition at 1 µM (hPDE8B) [%]	inhibition at 1 µM (hPDE4D) [%]	inhibition at 100 µM (hPDE10A; at 100 μmol/L, read-out: inhibition rate (%) at prescribed concentration, PDE10) [%]	SMILES
4.18	8.25	0.04	45						CC1CCCCC1n1nnc2c(N)ncnc21 (single isomer, unassigned) [Example 192, 3-(trans-2-methylcyclohexyl)-3H-[1,2,3]triazolo[4,5-d]pyrimidin-7-amine]
2.06		0.17		25	9.45				Nc1ncnc2c1nnn2C1CCC(F)(F)CC1 [Example 104]
1.31		0.02		43	4.53				CC1(C)CCCC(n2nnc3c(N)ncnc32)C1 (racemic) [Example 128, 3-(3,3-dimethylcyclohexyl)-3H-[1,2,3]triazolo[4,5-d]pyrimidin-7-amine]
8.89		0.16		39	3.87				Nc1nccn2c(N3CCCCC3)nnc12 [Example 166]
7.33		0.21	38	50					Nc1ncnc2c(C3CCCCC3)noc12 [Example 188, 3-cyclohexylisoxazolo[4,5-d]pyrimidin-7-amine]
1.6	12.9	0.07			6.3				CC1CCCN(c2nnc3c(N)nccn23)C1 (stereo not shown) [Example 24]
3.7	28.4	0.09			4.3				CC1CCN(c2nnc3c(N)nccn23)CC1 [Example 28]
0.59		0.03		33	3.5				Nc1ncnc2c1nnn2C1CCCCCC1 [Example 110, 3-cycloheptyl-3H-[1,2,3]triazolo[4,5-d]pyrimidin-7-amine]
5.1	11.9	0.08			5.4				Nc1nccn2c(N3CCCCCC3)nnc12 [Example 29]
5.8	5.5	0.04			8.3				C[C@@H]1CCCCN1c1nnc2c(N)nccn12 [Example 22, 3-(2-methylpiperidin-1-yl) [1,2,4]triazolo[4,3-a]pyrazin-8-amine]
3.4	8.6	< 0.01			10.3				Nc1nccn2c(C3CCCC4(CC4)C3)nnc12 (single isomer, unassigned) [Example 208, 3-(spiro[2,5]oct-5-yl) [1,2,4]triazolo[4,3-a]pyrazin-8-amine]
0.24		0.01		48	2.13				C[C@H]1CC[C@H](n2nnc3c(N)ncnc32)CC1 [Example 8, 3-(trans-4-methylcyclohexyl)-3H-[1,2,3]triazolo[4,5-d]pyrimidin-7-amine]
1.77		0.11		27	5.5				Nc1nccn2c(C3CCCC3)nnc12 [Example 161]
	12.2	0.04			6.98	79			Nc1ncnc2c1nnn2C1CCCCC1F (single isomer, unassigned) [Example 194, 3-(cis-2-fluorocyclohexyl)-3H-[1,2,3]triazolo[4,5-d]pyrimidin-7-amine]
2.49	17.9	0.04			6.21				Nc1ncnn2c(C3CCCC(F)(F)C3)nnc12 (racemic) [Example 82, 3-(3,3-difluorocyclohexyl) [1,2,4]triazolo[3,4-f][1,2,4]triazin-8-amine]
1.16		0.014		27	5.31				Nc1ncnc2c1nnn2C1CCCC(C(F)(F)F)C1 (single isomer, unassigned) [Example 202, 3-[cis-3-(trifluoromethyl)cyclohexyl]-3H-[1,2,3]triazolo[4,5-d]pyrimidin-7-amine]
